What was measured:
[1] = tested on: LNCaP cells; type: cell-based
[2] = tested on: NCI 60-cell panel; conditions: read-out: Growth Inhibition of 50% (GI50); cited from earlier work
[3] = tested on: Hsp90 derived from transformed cells overexpressing HER-2 (BT474, N87, SKOV3 and SKBR3); conditions: cited from earlier work
[4] = tested on: MCF7 cells
[5] = preclinical data; cited from earlier work
[6] = tested on: Hsp90/Hsp70 chaperoning machinery (rabbit reticulocyte lysate) with progesterone receptor; experiment: Progesterone receptor (PR) reconstitution assay: recovery of hormone binding activity of PR; type: biochemical
Description: To identify small molecule inhibitors of molecular chaperones, a high-throughput functional screen was developed based on the isoform A of progesterone receptor (PRA), a well-established physiological client of Hsp90, and using rabbit reticulocyte lysate (RRL) as a source of molecular chaperones. This comprehensive functional assay measured the recovery of hormone binding activity of PRA after mild heat treatment. Purified PR was adsorbed onto PR22 antibody bound to protein A that was absorbed on 96 well plates. 100 μl of RRL lysate and ATP regeneration system was added to each well. After incubation for 30 min at 30° C., 0.1 μM [3H]-progesterone (American Radiolabeled Chemicals, Inc #ART 0063) was added. Plates were incubated on ice for 2 h at 4° C. Complexes were then washed three times with 200 μl of reaction buffer (20 mM Tris/HCl, pH 7.5, 5 mM MgCl2, 2 mM DTT, 0.01% NP-40, 50 mM KCl and 5 mM ATP) and assessed for bound progesterone by liquid scintillation using PerkinElmer Microbeta plate reader.
PR complexes were reconstituted on a 96-well plate; the first eight samples contain the following internal controls: 1. Protein A alone, 2. Protein A+PR22, 3. Protein A+PR22+PR, 4. Protein A+PR22+PR+RRL, 5. Protein A+PR22+PR+RRL+17-AAG (20 μM), 6. Protein A+PR22+PR+RRL+Myrecetin (20 μM), 7. Protein A+PR22+PR+RRL+geldanamycin (20 μM), 8. Protein A+PR22+PR+RRL+gedunin (20 μM). […]

[7] = tested on: Hsp90; experiment: Fluorescence emission assay with Hsp90; type: binding; conditions: Hsp90 15 μM, capsaicin 7.5 μM, excitation 266 nm
Method: (§1) FIG. 5A is a histogram showing the ratio of Hsp70 mRNA relative to β-actin in the presence of DMSO, 100 μM or 200 μM capsaicin (Cap) after RT-PCR. FIG. 5B is a graph of fluorescence emission spectra for capsaicin, Hsp70, Hsp70 with capsaicin (Hsp70+C), Hsp90, Hsp90 with capsaicin (Hsp90+C), Hsp40 and Hsp40 with capsaicin (Hsp40+C), at wavelengths between 290 and 440 nm. All chaperones were tested at 15 μM and capsaicin at 7.5 μM. Proteins were incubated for 1 h at room temp in the presence or absence of capsaicin. An excitation wavelength of 266 nm was used.
(§2) To determine the effect of molecular chaperones on the fluorescence emission of capsaicin, all chaperones were tested at 15 μM and capsaicin at 7.5 μM concentrations. Proteins were incubated for 1 h at room temperature in the presence or absence of capsaicin. A 96-well black plate and a SAFIRE-TECAN plate reader were used. The excitation wavelength was 266 nm.

[8] = tested on: cancer cells (LNCaP, MCF7, HepG2, HeLa); experiment: Colony formation assay; type: cell-based; conditions: 200 μM capsaicin for 24 h, 15 days growth
Description: FIG. 3A is a line graph of absorbance at 495 nm (arbitrary units) versus Capsaicin dose (μM) of Hs578Bst and MCF7 cells treated with the indicated dose of capsaicin. FIG. 3B is a line graph of absorbance at 495 nm versus time of capsaicin treatment (hours) of Hs578Bst cells and MCF7 cells. Stippled line represents Hs578Bst cells and solid line represents MCF7 cells. FIGS. 3C-F are histograms showing colony number versus treatment with DMSO or Capsaicin in the following cell lines: LNCaP (FIG. 3C), MCF7 (FIG. 3D), HepG2 (FIG. 3E), and HeLa (FIG. 3F). Cells were treated with 200 μM capsaicin for 24 h. Adherent cells were then collected and plated (1000 cells per 10 cm dish) for further incubation. The standard deviation of three dishes is shown as error bars. The experiment was reproduced twice. FIG. 3G is an autoradiograph of cell lysates HeLa, MCF7 and LNCaP treated with 200 μM capsaicin for 24 h; cell lysates were made and Western blotted for p62/SQSTM1 and LC3II. β-actin was used as a loading control. LNCaP cells were treated with 50, 100 and 200 μM capsaicin for 24 h. this experiment was reproduced twice. […] DMSO was used as a control.
Cells were grown in 6-well tissue culture plates to 60% confluence and treated with 200 μM capsaicin or DMSO control for 24 h. […] Cells were fixed with 6% Glutaraldehyde and 0.5% Crystal Violet, and colonies that contained 50 cells were counted. […]

[9] = purified capsaicin; cited from earlier work
[10] = tested on: Hsp90α, Hsp90β, Hsp40, p23 and Hop; experiment: Western blotting of molecular chaperones in cancer cells; type: cell-based; conditions: 50, 100, 200 μM capsaicin
Method: (§3) FIGS. 2A-2F are autoradiographs of composite images of Western immuno-staining blots. […] FIGS. 2D-E show the Hsp90 client proteins HER2, GR, PRB, CDK4, Chk1, Raf-A, Akt and ILK, and the chaperones Hsp70, 2;3, Hsc70, HOP, HDJ2 (Hsp40), p23, Hsp90α and Hsp90β in the presence of DMSO, 2.5 μM 17AAG or 50, 100 or 200 μM capsaicin in HeLa cells (FIG. 2D) or MCF7 cells (FIG. 2E), respectively. In all blots, 2.5 μM 17-AAG was used as a positive control for cellular degradation of several kinases and hormone receptor clients of Hsp90, Beta actin (β-actin) was used a loading control. FIG. 2F is an autoradiograph of a Western blot showing capsaicin altered Hsp70 multi-chaperone complexes in cells. LNCaP cells were treated with 200 μM capsaicin for 6 h and then lysed, and Hsp70 complexes were pulled down using an antibody against Hsp70 on Protein A-Sepharose beads. Western blotting was performed for Hsp70, Hsp40 (HDJ-2), and Hsp90β. Capsaicin reduced Hsp40 and Hsp90 binding to Hsp70. Mouse IgG was used as a control.
(§4) Cells were lysed with buffer A (10 mM Tris pH 8.0, 137 mM NaCl, 10% glycerol, 1% Nonident P-40) supplemented with protease inhibitor cocktail (Roche Applied Science catalog no. 11 836 170 001) on ice for 30 minutes, shaking every 5 minutes. Lysate was centrifuged at 16,000×g for 10 minutes. 10 μg of clarified lysates were run on SDS-PAGE (10% gel) and transferred to PVDF membrane. […]

[11] = biological target: Hsp70 (Homo sapiens, UniProt P0DMV8); experiment: Fluorescence emission assay with purified Hsp70; type: binding; conditions: Hsp70 15 μM, capsaicin 7.5 μM, 1 h room temperature, excitation 266 nm
Method: as §1, §2

[12] = tested on: MCF7 cells; experiment: Microscopy (light, transmission electron) of capsaicin-treated MCF7 cells; type: cell-based
[13] = 5 mg/kg by gavage, three days per week for 2-4 weeks; cited from earlier work
[14] = tested on: Hsc70 (constitutive form); experiment: Western blotting of Hsc70 in cancer cells; type: cell-based; conditions: HeLa and MCF7 cells
Method: as §3, §4

[15] = tested on: Hsp40; experiment: Fluorescence emission assay with Hsp40; type: binding; conditions: Hsp40 15 μM, capsaicin 7.5 μM, excitation 266 nm
Method: as §1, §2

[16] = in vivo; cited from earlier work
[17] = tested on: LC3II and p62/SQSTM1; experiment: Western blotting of autophagy markers; type: cell-based
[18] = tested on: Hsp70 (inducible form, Hsp70i); experiment: Western blotting of Hsp70 in cancer cells; type: cell-based
[19] = tested on: Hsp90 client proteins (Her2, CDK4, ChK1, Raf-A, Akt, ILK, GR, PR, AR); experiment: Western blotting of Hsp90 client proteins in cancer cells; type: cell-based; conditions: 50, 100, 200 μM capsaicin; HeLa, MCF7, LNCaP cells
Method: as §3, §4

[20] = tested on: Hsp70 mRNA; experiment: Gene expression assay (RT-PCR) of Hsp70 mRNA in MCF7 cells; type: cell-based
[21] = biological target: T1, Hsp70 multi-chaperone complexes (Homo sapiens, UniProt P0DMV8); experiment: Hsp70 complex pull-down and Western blotting in LNCaP cells; type: cell-based; conditions: 200 μM capsaicin, 6 h
T1 construct: endogenous in cells; host or cells: LNCaP
Method: as §3
FIG. 12 is an autoradiograph of LNCaP cells treated with 200 μM capsaicin for 6 h and then lysed and Western blotted for Hsp70, Hsp40 (HDJ-2), and Hsp90β. Capsaicin reduced Hsp40 and Hsp90 binding to Hsp70. Mouse IgG was used as a control.

[22] = tested on: HCT 116 colon cancer cells; conditions: cited from earlier work

Sequence of Hsp70 (P0DMV8 2-641 limits assumed): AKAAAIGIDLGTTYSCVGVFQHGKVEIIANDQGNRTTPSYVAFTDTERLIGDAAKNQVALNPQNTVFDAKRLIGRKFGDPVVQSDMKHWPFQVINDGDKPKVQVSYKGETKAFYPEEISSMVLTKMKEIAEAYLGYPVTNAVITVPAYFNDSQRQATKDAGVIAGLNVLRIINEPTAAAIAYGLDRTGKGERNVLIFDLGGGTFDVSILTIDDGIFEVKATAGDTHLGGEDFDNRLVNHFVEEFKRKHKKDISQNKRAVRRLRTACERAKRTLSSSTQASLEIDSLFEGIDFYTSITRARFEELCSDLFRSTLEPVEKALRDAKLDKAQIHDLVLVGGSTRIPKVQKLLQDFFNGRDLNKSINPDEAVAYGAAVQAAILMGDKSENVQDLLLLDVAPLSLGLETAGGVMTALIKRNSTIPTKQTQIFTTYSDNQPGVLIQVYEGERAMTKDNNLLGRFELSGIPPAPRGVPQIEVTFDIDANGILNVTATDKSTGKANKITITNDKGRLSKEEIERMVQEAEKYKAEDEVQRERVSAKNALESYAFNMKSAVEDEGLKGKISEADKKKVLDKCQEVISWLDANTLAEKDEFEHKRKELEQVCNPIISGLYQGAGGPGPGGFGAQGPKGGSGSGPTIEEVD
T1 sequence (P0DMV8 2-641 limits assumed, one chain of several): as the sequence (P0DMV8 2-641 limits assumed) above

SMILES: C=CCNC1=C2C[C@@H](C)C[C@H](OC)[C@H](O)[C@@H](C)/C=C(\C)[C@H](OC(N)=O)[C@@H](OC)/C=C\C=C(/C)C(=O)NC(=CC1=O)C2=O [17-AAG, 17-allylamino-17-demethoxygeldanamycin]
- cell killing (relative survival) [1]: very little effect or no effect
- GI50 [2]: 120 nM
- IC50 ([3]; Hsp90 from HER-2 overexpressing cells or BT474 breast carcinoma cells): 5 to 6 nM
- higher affinity for Hsp90 derived from transformed cells ([3]; relative to non-tumor cells): more than 100 ×
- cytotoxicity (cell survival) [4]: minimal cytotoxicity

SMILES: CO[C@H]1/C=C\C=C(/C)C(=O)NC2=CC(=O)C(NCCN(C)C)=C(C[C@@H](C)C[C@H](OC)[C@H](O)[C@@H](C)/C=C(\C)[C@@H]1OC(N)=O)C2=O [17-DMAG, 17-Dimethylaminoethylamino-17-demethoxygeldanamycin]
- GI50 [2]: 51 nM

SMILES: CC(C)c1cc(-c2n[nH]c(=O)n2-c2ccc3c(ccn3C)c2)c(O)cc1O [Ganetespib]
- cardiac or liver toxicity [5]: no evidence of cardiac or liver toxicity

SMILES: COc1cc(CNC(=O)CCCC/C=C/C(C)C)ccc1O [capsaicin, 8-Methyl-N-vanillyl-trans-6-nonenamide]
- blocking the hormone-binding activity of PR ([6]; rescreened in triplicates at 20 μM final concentration): about 40%
- modulation of the Hsp90 chaperoning activity ([6]; screen of NIH Clinical Collection library (FIG. 1)): efficient and reproducible modulation
- capsaicin fluorescence emission in presence of Hsp90 [7]: may not significantly change
- ability of cancer cells to form colonies [8]: efficiently reduces
- solubility in alcohol, fats and oils [9]: freely soluble
- solubility in cold water [9]: insoluble
- expression level of molecular chaperones Hsp90α, Hsp90β, Hsp40, p23 and Hop [10]: did not affect
- cell killing (relative survival) [1]: very little effect or no effect
- capsaicin fluorescence emission in presence of Hsp70 [11]: completely quenched
- mitophagy [12]: induced mitophagy
- toxicity symptoms [13]: No toxicity symptoms were observed
- level of Hsc70 [14]: did not change
- capsaicin fluorescence emission in presence of Hsp40 [15]: may not significantly change
- pharmacokinetic half-life [16]: approximately 24 hours
- LC3II modification ([17]; HeLa cells, 200 μM capsaicin 24 h): no LC3II modification
- LC3B modification ([17]; LNCaP cells, 50, 100, 200 μM capsaicin 24 h): concentration-dependent induction
- LC3II levels ([17]; MCF7 and LNCaP cells, 200 μM capsaicin 24 h): significantly increased
- p62/SQSTM1 protein level ([17]; capsaicin treatment, Western blot): accumulation
- level of Hsp70 ([18]; HeLa and MCF7 cells): reduced the level of Hsp70
- degradation of Hsp70 ([18]; HeLa, LNCaP, MCF7, Hs578T and MDA-MB-231, 24 h): reproducibly caused degradation
- level of Hsp70 after 6 h of treatment ([18]; LNCaP cells, 200 μM capsaicin, 6 h (FIG. 12)): not significantly down
- stabilization of Hsp70 protein by autophagy inhibitor 3MA ([18]; capsaicin 200 μM (alone or with 17-AAG) plus 3MA 5 mM, 6 h): almost fully stabilizes
- rescue of Hsp70 protein by proteasome inhibitor MG132 ([18]; capsaicin 200 μM plus MG132 20 μM, 6 h): does not rescue
- Hsp70 protein level ([18]; capsaicin 200 μM, 17-AAG 200 nM (FIG. 7C)): decreased
- cellular degradation of Hsp90 client proteins [19]: caused cellular degradation
- level of Hsp70 mRNA ([20]; 100 or 200 μM capsaicin, 24 h (FIG. 5A)): No change
- level of Hsp70 mRNA ([20]; capsaicin 200 μM, 17-AAG 200 nM (FIG. 7A)): slightly increased
- Hsp40 and Hsp90 binding to Hsp70 [21]: reduced
- cell death of MCF7 cancer cells [4]: caused cell death
- cytotoxicity (cell survival) [4]: minimal cytotoxicity

SMILES: COc1cc(CNC(=O)CCCCCCC(C)C)ccc1O [dihydrocapsaicin]
- mitoautophagy [22]: induces mitoautophagy
